Key:
[1] = tested on: wild type AR (MDA 453 cells); settings: read-out: Kd for [3H]-DHT, Scatchard analysis, 4 h at 37° C.
Description: For the whole-cell binding assay, human LNCaP cells (T877A mutant AR) or MDA 453 (wild type AR) in 96-well microtiter plates containing RPMI 1640 or DMEM supplemented with 10% charcoal stripped CA-FBS (Cocaleco Biologicals) respectively, were incubated at 37° C. to remove any endogenous ligand that might be complexed with the receptor in the cells.
For the saturation analysis, the difference between the total binding and the non-specific binding, was defined as specific binding. […] See e.g. D. Rodbard, Mathematics and statistics of ligand assays: an illustrated guide: In: J. Langon and J. J. Clapp, eds., Ligand Assay, Masson Publishing U.S.A., Inc., New York, pp. 45-99, (1981), the disclosure of which is herein incorporated by reference.
Two replicates were used for each sample.
[formula] After correcting for non-specific binding, IC50 values were determined. […] C2C12 Mouse Myoblast Transactivation Assay

androgen receptor = molecular target: T1, androgen receptor (Rattus norvegicus, UniProt P15207); settings: castrated rats
T1 sequence (P15207 1-902): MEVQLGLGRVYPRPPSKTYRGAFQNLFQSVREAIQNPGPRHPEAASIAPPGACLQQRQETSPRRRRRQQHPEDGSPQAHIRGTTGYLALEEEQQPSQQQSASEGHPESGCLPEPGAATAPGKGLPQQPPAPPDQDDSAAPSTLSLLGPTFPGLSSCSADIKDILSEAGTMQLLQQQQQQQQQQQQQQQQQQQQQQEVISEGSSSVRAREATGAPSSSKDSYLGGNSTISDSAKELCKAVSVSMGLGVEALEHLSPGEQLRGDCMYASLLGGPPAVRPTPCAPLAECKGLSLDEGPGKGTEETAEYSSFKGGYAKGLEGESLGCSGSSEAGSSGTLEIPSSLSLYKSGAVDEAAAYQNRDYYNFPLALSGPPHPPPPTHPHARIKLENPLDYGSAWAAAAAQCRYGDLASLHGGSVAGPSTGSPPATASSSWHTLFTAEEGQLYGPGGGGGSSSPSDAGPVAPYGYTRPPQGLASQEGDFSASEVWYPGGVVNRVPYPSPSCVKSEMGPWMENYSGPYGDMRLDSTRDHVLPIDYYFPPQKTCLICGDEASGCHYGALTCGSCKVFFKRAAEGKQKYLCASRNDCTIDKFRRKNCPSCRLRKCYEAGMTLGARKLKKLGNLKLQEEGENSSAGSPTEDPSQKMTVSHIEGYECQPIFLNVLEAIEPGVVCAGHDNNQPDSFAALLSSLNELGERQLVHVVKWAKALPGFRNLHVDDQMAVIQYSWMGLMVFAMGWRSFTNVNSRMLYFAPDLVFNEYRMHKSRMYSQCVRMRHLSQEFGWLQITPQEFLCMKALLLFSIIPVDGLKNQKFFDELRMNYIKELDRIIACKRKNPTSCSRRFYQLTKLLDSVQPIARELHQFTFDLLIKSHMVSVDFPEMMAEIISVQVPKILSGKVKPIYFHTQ
Description: The basis of this assay lies in the well-defined action of androgenic agents on the maintenance and growth of muscle tissues and sexual accessory organs in animals and man. […] As described above, the effects of androgens on maintenance of male sexual accessory organs, such as the prostate and seminal vesicles, is well described. Castration results in rapid involution and atrophy of the prostate and seminal vesicles. This effect can be reversed by exogenous addition of androgens. Since both the levator ani muscle and the male sex organs are the tissues most responsive to the effects of androgenic agents, this model is used to determine the androgen dependent reversal of atrophy in the levator ani muscle and the sex accessory organs in immature castrated rats. Sexually mature rats (200-250 g, 6-8 weeks-old, Sprague-Dawley, Harlan) were acquired castrated from the vendor (Taconic). The rats were divided into groups and treated daily for 7 to 14 days with one of the following: • 1. Control vehicle • 2. […] TP plus Bicalutamide (administered p.o. in PEGTW, QD), a recognized antiandrogen, as a reference compound. • 4.
At the end of the 7-14-day treatment, the animals were sacrificed by carbon dioxide, and the levator ani, seminal vesicle and ventral prostate weighed. […]

[2] = molecular target: glucocorticoid receptor (endogenous, A549 cells) (Homo sapiens, UniProt P04150); settings: concentration ≦10 μM; 10 ng/mL PMA; 7 h at 37° C.
Sequence of glucocorticoid receptor (endogenous, A549 cells) (P04150 whole entry): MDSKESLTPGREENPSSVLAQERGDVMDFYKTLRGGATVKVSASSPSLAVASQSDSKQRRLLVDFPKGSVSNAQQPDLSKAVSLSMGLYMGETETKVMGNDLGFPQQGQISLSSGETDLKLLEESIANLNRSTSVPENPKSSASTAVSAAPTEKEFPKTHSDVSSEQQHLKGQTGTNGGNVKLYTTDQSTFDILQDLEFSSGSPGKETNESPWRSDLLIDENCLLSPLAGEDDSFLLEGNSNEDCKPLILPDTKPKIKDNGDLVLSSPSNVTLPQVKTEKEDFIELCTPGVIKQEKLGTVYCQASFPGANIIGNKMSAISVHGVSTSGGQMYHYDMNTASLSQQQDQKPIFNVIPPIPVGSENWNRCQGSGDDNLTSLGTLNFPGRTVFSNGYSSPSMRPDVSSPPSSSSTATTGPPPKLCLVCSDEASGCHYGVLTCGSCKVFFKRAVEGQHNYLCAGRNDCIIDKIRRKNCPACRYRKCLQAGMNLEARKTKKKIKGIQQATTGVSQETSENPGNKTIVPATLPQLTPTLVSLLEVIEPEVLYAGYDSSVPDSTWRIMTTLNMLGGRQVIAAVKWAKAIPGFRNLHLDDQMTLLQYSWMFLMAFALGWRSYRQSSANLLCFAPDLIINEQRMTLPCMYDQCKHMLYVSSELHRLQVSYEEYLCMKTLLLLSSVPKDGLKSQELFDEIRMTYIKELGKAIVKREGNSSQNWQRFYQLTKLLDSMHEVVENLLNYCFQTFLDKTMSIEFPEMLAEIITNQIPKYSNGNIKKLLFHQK
Description: The AP-1 assay is a cell-based luciferase reporter assay. A549 cells, which contain endogenous glucocorticoid receptor, were stably transfected with an AP-1 DNA binding site attached to the luciferase gene. Cells are then grown in RPMI+10% fetal calf serum (charcoal-treated)+Penicillin/Streptomycin with 0.5 mg/mL geneticin. Cells are plated the day before the assay at approximately 40000 cells/well. On assay day, the media is removed by aspiration and 20 μL assay buffer (RPMI without phenol red+10% FCS (charcoal-treated)+Pen/Strep) is added to each well. At this point either 20 μL assay buffer (control experiments), the compounds of the present invention (“test compounds”) (dissolved in DMSO and added at varying concentrations) or dexamethasome (100 nM in DMSO, positive control) are added to each well. The plates are then pre-incubated for 15 min at 37° C., followed by stimulation of the cells with 10 ng/mL PMA. The plates are then incubated for 7 h at 37° C. after which 40 μL luciferase substrate reagent is added to each well. Activity is measured by analysis in a luminometer as compared to control experiments treated with buffer or dexamethasome.

Which Kd [1] does the source give for “tritiated dihydrotestosterone [[^3H]-DHT]” here?
The Kd was 700 pM.

Which “EC50 (increase in organ weight)” value (androgen receptor) does the source give for `CCC(=O)O[C@H]1CC[C@H]2[C@@H]3CCC4=CC(=O)CC[C@]4(C)[C@H]3CC[C@]12C` [testosterone propionate, Testosterone Propionate] here?
Its value is roughly 0.03 mg.

Which “% inhibition of the AP-1 reporter system vs buffer control with PMA alone” value [2] does the source give for `C[C@@H]1C[C@H]2[C@@H]3CCC4=CC(=O)C=C[C@]4(C)[C@@]3(F)[C@@H](O)C[C@]2(C)[C@@]1(O)C(=O)CO` [dexamethasone] here?
The value was 65%.

From patent US7625923B2, “Bicyclic modulators of androgen receptor function” (Bristol-Myers Squibb Company, priority 2004, dated 2009)
